Reference: US9694016B2 (Novartis AG, priority 2013, dated 2017)

biological target: b-Raf (V600E) (Homo sapiens (Human), UniProt P15056, V600E); details: read-out: b-Raf IC-50; AlphaScreen, 60 min pre-incubation, reaction 3 hours at room temperature
Sequence (P15056 whole entry V600E): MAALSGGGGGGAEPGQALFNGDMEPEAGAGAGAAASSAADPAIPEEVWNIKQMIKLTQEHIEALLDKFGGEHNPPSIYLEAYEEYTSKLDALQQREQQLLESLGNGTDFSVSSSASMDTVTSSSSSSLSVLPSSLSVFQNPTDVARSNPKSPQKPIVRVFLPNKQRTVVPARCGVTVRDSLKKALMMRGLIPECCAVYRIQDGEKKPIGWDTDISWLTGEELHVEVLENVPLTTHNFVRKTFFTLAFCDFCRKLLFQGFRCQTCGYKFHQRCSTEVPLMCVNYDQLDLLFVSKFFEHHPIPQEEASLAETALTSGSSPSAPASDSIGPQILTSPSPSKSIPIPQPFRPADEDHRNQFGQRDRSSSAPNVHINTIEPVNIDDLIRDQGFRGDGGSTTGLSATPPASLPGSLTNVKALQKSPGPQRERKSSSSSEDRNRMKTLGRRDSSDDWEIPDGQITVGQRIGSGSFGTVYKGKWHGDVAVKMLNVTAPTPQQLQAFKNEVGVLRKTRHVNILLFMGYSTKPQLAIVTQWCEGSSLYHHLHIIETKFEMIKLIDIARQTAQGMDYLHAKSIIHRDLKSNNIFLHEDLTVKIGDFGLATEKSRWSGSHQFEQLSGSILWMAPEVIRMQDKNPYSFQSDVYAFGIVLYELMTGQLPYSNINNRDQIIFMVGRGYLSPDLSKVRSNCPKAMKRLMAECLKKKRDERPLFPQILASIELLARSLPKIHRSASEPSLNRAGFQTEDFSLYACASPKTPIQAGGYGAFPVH

| SMILES | IC50 [nM] |
| --- | --- |
| Cc1ncc(NC(=O)c2ccnc(S(C)(=O)=O)c2)cc1-c1cc(N2CCOCC2)nc(N2CC(O)C2)c1 [Example 1090, N-(2′-(3-hydroxyazetidin-1-yl)-2-methyl-6′-morpholino-[3,4′-bipyridin]-5-yl)-2-(methylsulfonyl)isonicotinamide] | 51.1 |
| Cc1ncc(NC(=O)c2cccc(C(C)(C)S(C)(=O)=O)c2)cc1-c1cc(N2CCOCC2)nc(N2CC(O)C2)c1 [Example 1091, N-(2′-(3-hydroxyazetidin-1-yl)-2-methyl-6′-morpholino-[3,4′-bipyridin]-5-yl)-3-(2-(methylsulfonyl)propan-2-yl)benzamide] | 1110 |
| Cc1ncc(NC(=O)c2cccc(-c3nnco3)c2)cc1-c1cc(N2CCOCC2)nc(N2CC(O)C2)c1 [Example 1092, N-(2′-(3-hydroxyazetidin-1-yl)-2-methyl-6′-morpholino-[3,4′-bipyridin]-5-yl)-3-(1,3,4-oxadiazol-2-yl)benzamide] | 34.9 |
| Cc1ncc(NC(=O)c2cc(C3CC3)on2)cc1-c1cc(N2CCOCC2)nc(N2CC(O)C2)c1 [Example 1093, 5-cyclopropyl-N-(2′-(3-hydroxyazetidin-1-yl)-2-methyl-6′-morpholino-[3,4′-bipyridin]-5-yl)isoxazole-3-carboxamide] | 6.58 |
| Cc1ccc(NC(=O)c2ccnc(C(C)(C)O)c2)cc1-c1cc(N2CCOCC2)nc(N2CC(O)C2)c1 [Example 1098, N-(3-(2-(3-hydroxyazetidin-1-yl)-6-morpholinopyridin-4-yl)-4-methylphenyl)-2-(2-hydroxypropan-2-yl)isonicotinamide] | 5.75 |
| Cc1ccc(NC(=O)c2cccc(C(C)(C)S(C)(=O)=O)c2)cc1-c1cc(N2CCOCC2)nc(N2CC(O)C2)c1 [Example 1099, N-(3-(2-(3-hydroxyazetidin-1-yl)-6-morpholinopyridin-4-yl)-4-methylphenyl)-3-(2-(methylsulfonyl)propan-2-yl)benzamide] | 18.8 |
| Cc1ncc(NC(=O)c2cnnc(C3CC3)c2)cc1-c1cc(N2CCOCC2)nc(N2CC(C)(O)C2)c1 [Example 1101, 6-cyclopropyl-N-(2′-(3-hydroxy-3-methylazetidin-1-yl)-2-methyl-6′-morpholino-[3,4′-bipyridin]-5-yl)pyridazine-4-carboxamide] | 13.7 |

These reach a lower IC50. Values come first.

| IC50 [nM] | SMILES |
| --- | --- |
| 3.89 | Cc1ccc(NC(=O)c2cccc(-c3nnco3)c2)cc1-c1cc(N2CCOCC2)nc(N2CC(O)C2)c1 [Example 1100, N-(3-(2-(3-hydroxyazetidin-1-yl)-6-morpholinopyridin-4-yl)-4-methylphenyl)-3-(1,3,4-oxadiazol-2-yl)benzamide] |
| 3.84 | Cc1ncc(NC(=O)c2cccc(C(F)(F)F)c2)cc1-c1cc(N2CCOCC2)nc(N2CC(O)C2)c1 [Example 1094, N-(2′-(3-hydroxyazetidin-1-yl)-2-methyl-6′-morpholino-[3,4′-bipyridin]-5-yl)-3-(trifluoromethyl)benzamide] |
| 3.32 | Cc1ccc(NC(=O)c2ccnc(S(C)(=O)=O)c2)cc1-c1cc(N2CCOCC2)nc(N2CC(O)C2)c1 [Example 1097, N-(3-(2-(3-hydroxyazetidin-1-yl)-6-morpholinopyridin-4-yl)-4-methylphenyl)-2-(methylsulfonyl)isonicotinamide] |
| 2 | Cc1ccc(NC(=O)c2cccc(S(C)(=O)=O)c2)cc1-c1cc(N2CCOCC2)nc(N2CC(O)C2)c1 [Example 1096, N-(3-(2-(3-hydroxyazetidin-1-yl)-6-morpholinopyridin-4-yl)-4-methylphenyl)-3-(methylsulfonyl)benzamide] |
| 1.11 | Cc1ccc(NC(=O)c2cc(C3CC3)on2)cc1-c1cc(N2CCOCC2)nc(N2CC(O)C2)c1 [Example 1095, 5-cyclopropyl-N-(3-(2-(3-hydroxyazetidin-1-yl)-6-morpholinopyridin-4-yl)-4-methylphenyl)isoxazole-3-carboxamide] |
